Data taken from ChEMBL document CHEMBL1155089, “Discovery of an Aurora kinase inhibitor through site-specific dynamic combinatorial chemistry” (Bioorg Med Chem Lett, 2008).

Target: T1, Aurora kinase A (Homo sapiens, UniProt O14965)
T1 sequence (O14965 whole entry): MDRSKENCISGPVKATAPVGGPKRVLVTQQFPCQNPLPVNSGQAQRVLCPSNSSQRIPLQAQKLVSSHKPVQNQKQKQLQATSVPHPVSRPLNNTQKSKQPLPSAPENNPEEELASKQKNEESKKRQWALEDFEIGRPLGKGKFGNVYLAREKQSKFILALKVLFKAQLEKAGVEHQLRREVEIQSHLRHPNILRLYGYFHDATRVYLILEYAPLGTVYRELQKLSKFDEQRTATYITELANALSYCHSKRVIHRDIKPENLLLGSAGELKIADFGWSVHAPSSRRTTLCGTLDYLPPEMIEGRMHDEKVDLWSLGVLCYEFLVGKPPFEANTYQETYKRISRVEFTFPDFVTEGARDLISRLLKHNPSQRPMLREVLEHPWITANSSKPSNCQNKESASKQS
Test: Inhibition of Aurora kinase A

Row | Structure (SMILES) | IC50
1 | CCCCNC(=O)c1cccc(NC(=O)CCCCCNc2ncnc3nc[nH]c23)c1 | 2.9 µM
2 | CCCCNC(=O)c1cccc(NC(=O)CCCCCCNc2cc(N)ncn2)c1 | 17 µM
3 | CCCCCCNc1ncnc2nc[nH]c12 | > 100 µM
